Experimental data: ChEMBL document CHEMBL4321812, “Structure-based rational design of staurosporine-based fluorescent probe with broad-ranging kinase affinity for kinase panel application” (Bioorg Med Chem Lett, 2019)

Experiments:
[1] = target: Proto-oncogene tyrosine-protein kinase receptor Ret (Homo sapiens, UniProt P07949); experiment: Binding affinity to recombinant N-terminal His-FLAG-GST-tagged RET (unknown origin) (658 to 1114 residues) expressed in baculovirus infected Sf9 insect cells incubated for 1 hr by TR-FRET assay
[2] = target: Non-receptor tyrosine-protein kinase TYK2 (Homo sapiens, UniProt P29597); experiment: Binding affinity to recombinant N-terminal His-FLAG-GST-tagged TYK2 (unknown origin) (871 to 1187 residues) expressed in baculovirus infected Sf9 insect cells incubated for 1 hr by TR-FRET assay
[3] = target: Interleukin-1 receptor-associated kinase 1 (Homo sapiens, UniProt P51617); experiment: Binding affinity to recombinant N-terminal His-FLAG-GST-tagged IRAK1 (unknown origin) (194 to 712 residues) expressed in baculovirus infected Sf9 insect cells incubated for 1 hr by TR-FRET assay
[4] = target: Tyrosine-protein kinase receptor TYRO3 (Homo sapiens, UniProt Q06418); experiment: Binding affinity to recombinant full-length N-terminal His-FLAG-GST-tagged TYRO3 (unknown origin) expressed in baculovirus infected Sf9 insect cells incubated for 1 hr by TR-FRET assay
[5] = target: Death-associated protein kinase 2 (Homo sapiens, UniProt Q9UIK4); experiment: Binding affinity to recombinant full-length N-terminal His-FLAG-GST-tagged DAPK2 (unknown origin) expressed in baculovirus infected Sf9 insect cells incubated for 1 hr by TR-FRET assay
[6] = target: Serine/threonine-protein kinase D2 (Homo sapiens, UniProt Q9BZL6); experiment: Binding affinity to recombinant full-length N-terminal His-FLAG-tagged PRKD2 (unknown origin) expressed in baculovirus infected Sf9 insect cells incubated for 1 hr by TR-FRET assay
[7] = target: Serine/threonine-protein kinase 24 (Homo sapiens, UniProt Q9Y6E0); experiment: Binding affinity to recombinant full-length N-terminal His-FLAG-tagged STK24 (unknown origin) expressed in baculovirus infected Sf9 insect cells incubated for 1 hr by TR-FRET assay
[8] = target: Receptor tyrosine-protein kinase erbB-4 (Homo sapiens, UniProt Q15303); experiment: Binding affinity to recombinant human full-length N-terminal GST-tagged ERBB4 expressed in baculovirus expression system using srctide as substrate incubated for 1 hr by TR-FRET assay
[9] = target: Tyrosine-protein kinase SYK (Homo sapiens, UniProt P43405); experiment: Binding affinity to recombinant human full-length N-terminal GST-tagged SYK expressed in baculovirus expression system using Blk/Lyntide as substrate incubated for 1 hr by TR-FRET assay
[10] = target: Mitogen-activated protein kinase kinase kinase kinase 1 (Homo sapiens, UniProt Q92918); experiment: Binding affinity to recombinant N-terminal His-FLAG-GST-tagged MAP4K1 (unknown origin) (1 to 346 residues) expressed in baculovirus infected Sf9 insect cells incubated for 1 hr by TR-FRET assay
[11] = target: Mitogen-activated protein kinase kinase kinase 2 (Homo sapiens, UniProt Q9Y2U5); experiment: Binding affinity to recombinant full-length N-terminal His-FLAG-GST-tagged MAP3K2 (unknown origin) (337 to 620 residues) expressed in baculovirus infected Sf9 insect cells incubated for 1 hr by TR-FRET assay
[12] = target: Tyrosine-protein kinase Tec (Homo sapiens, UniProt P42680); experiment: Binding affinity to recombinant human N-terminal GST-tagged TEC (359 to 631 residues) expressed in baculovirus expression system using Srctide as substrate incubated for 1 hr by TR-FRET assay
[13] = target: Dual specificity protein kinase CLK1 (Homo sapiens, UniProt P49759); experiment: Binding affinity to recombinant N-terminal His-FLAG-GST-tagged CLK1 (unknown origin) (129 to 484 residues) expressed in baculovirus infected Sf9 insect cells incubated for 1 hr by TR-FRET assay
[14] = target: Proto-oncogene tyrosine-protein kinase Src (Homo sapiens, UniProt P12931); experiment: Binding affinity to recombinant full-length N-terminal His-FLAG-GST-tagged SRC (unknown origin) expressed in baculovirus infected Sf9 insect cells incubated for 1 hr by TR-FRET assay
[15] = target: Protein-tyrosine kinase 2-beta (Homo sapiens, UniProt Q14289); experiment: Binding affinity to recombinant full-length N-terminal His-FLAG-tagged PTK2B (unknown origin) expressed in baculovirus infected Sf9 insect cells incubated for 1 hr by TR-FRET assay
[16] = target: Ephrin type-A receptor 7 (Homo sapiens, UniProt Q15375); experiment: Binding affinity to recombinant N-terminal His-FLAG-GST-tagged EPHA7 (unknown origin) ( 595 to 998 residues) expressed in baculovirus infected Sf9 insect cells incubated for 1 hr by TR-FRET assay
[17] = target: Tyrosine-protein kinase CSK (Homo sapiens, UniProt P41240); experiment: Binding affinity to recombinant full-length N-terminal His-FLAG-tagged CSK (unknown origin) expressed in baculovirus infected Sf9 insect cells incubated for 1 hr by TR-FRET assay
[18] = target: Calcium/calmodulin-dependent protein kinase type II subunit gamma (Homo sapiens, UniProt Q13555); experiment: Binding affinity to recombinant full-length N-terminal His-FLAG-GST-tagged CAMK2G (unknown origin) expressed in baculovirus infected Sf9 insect cells incubated for 1 hr in presence of calmodulin by TR-FRET assay
[19] = target: Serine/threonine-protein kinase Sgk3 (Homo sapiens, UniProt Q96BR1); experiment: Binding affinity to recombinant full-length N-terminal His-FLAG-GST-tagged SGK3 (unknown origin) (119 to 496 residues) expressed in baculovirus infected Sf9 insect cells incubated for 1 hr by TR-FRET assay
[20] = target: Phosphorylase b kinase gamma catalytic chain, liver/testis isoform (Homo sapiens, UniProt P15735); experiment: Binding affinity to recombinant full-length N-terminal His-FLAG-GST-tagged PHKG2 (unknown origin) expressed in baculovirus infected Sf9 insect cells incubated for 1 hr by TR-FRET assay
[21] = target: Glycogen synthase kinase-3 alpha (Homo sapiens, UniProt P49840); experiment: Binding affinity to recombinant full-length N-terminal His-GST-tagged GSK3A (unknown origin) expressed in baculovirus infected Sf9 insect cells incubated for 1 hr by TR-FRET assay
[22] = target: Protein kinase C eta type (Homo sapiens, UniProt P24723); experiment: Binding affinity to recombinant full-length N-terminal His-FLAG-GST-tagged PRKCH (unknown origin) expressed in baculovirus infected Sf9 insect cells incubated for 1 hr by TR-FRET assay
[23] = target: Dual specificity mitogen-activated protein kinase kinase 6 (Homo sapiens, UniProt P52564); experiment: Binding affinity to recombinant human full length N-terminal GST-tagged MAP2K6 expressed in baculovirus expression system using p38alpha (9 to 352 residues) as substrate incubated for 1 hr by TR-FRET assay
[24] = target: Ribosomal protein S6 kinase beta-1 (Homo sapiens, UniProt P23443, T412E); experiment: Binding affinity to recombinant human full length N-terminal GST-tagged RPS6KB1 T412E mutant expressed in baculovirus expression system using S6K2 peptide as substrate incubated for 1 hr by TR-FRET assay

Sequence of Serine/threonine-protein kinase Sgk3 (Q96BR1 whole entry, the tested form may be a part, canonical isoform): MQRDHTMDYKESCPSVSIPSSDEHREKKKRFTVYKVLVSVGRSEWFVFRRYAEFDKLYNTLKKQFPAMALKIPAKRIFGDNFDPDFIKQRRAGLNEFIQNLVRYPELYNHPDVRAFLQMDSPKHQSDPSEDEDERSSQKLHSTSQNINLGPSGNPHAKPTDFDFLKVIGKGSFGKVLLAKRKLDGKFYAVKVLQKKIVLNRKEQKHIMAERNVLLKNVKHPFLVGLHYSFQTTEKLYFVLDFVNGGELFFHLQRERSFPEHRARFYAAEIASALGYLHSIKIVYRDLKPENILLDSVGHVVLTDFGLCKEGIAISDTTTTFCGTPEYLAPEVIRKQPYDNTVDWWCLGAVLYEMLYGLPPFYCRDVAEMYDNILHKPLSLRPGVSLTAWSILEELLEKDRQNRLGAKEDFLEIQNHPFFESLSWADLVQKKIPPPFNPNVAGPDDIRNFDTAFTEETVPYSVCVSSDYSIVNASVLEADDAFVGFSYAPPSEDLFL
Sequence of Serine/threonine-protein kinase D2 (Q9BZL6 whole entry): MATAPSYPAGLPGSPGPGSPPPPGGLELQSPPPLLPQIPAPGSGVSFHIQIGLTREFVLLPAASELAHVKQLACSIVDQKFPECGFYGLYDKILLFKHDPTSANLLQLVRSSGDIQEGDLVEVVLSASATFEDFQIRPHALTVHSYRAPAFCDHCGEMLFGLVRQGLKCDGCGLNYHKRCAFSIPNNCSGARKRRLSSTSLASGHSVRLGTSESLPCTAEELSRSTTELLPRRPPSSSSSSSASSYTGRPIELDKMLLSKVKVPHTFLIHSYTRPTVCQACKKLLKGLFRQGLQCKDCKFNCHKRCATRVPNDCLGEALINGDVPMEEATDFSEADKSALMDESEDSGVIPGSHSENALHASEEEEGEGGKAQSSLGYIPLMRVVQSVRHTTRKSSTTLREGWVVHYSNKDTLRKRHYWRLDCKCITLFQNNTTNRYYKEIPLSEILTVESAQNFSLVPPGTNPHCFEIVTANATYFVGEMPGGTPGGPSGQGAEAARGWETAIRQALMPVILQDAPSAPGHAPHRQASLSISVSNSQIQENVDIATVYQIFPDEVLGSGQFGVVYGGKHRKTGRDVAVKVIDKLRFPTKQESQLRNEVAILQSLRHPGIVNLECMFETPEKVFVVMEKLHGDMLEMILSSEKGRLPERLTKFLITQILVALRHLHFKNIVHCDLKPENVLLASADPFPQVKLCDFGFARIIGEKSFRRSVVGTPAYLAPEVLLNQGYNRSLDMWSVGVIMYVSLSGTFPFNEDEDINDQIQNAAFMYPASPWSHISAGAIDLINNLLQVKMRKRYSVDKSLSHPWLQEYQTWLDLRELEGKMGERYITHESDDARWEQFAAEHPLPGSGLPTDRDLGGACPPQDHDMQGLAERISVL
Sequence of Non-receptor tyrosine-protein kinase TYK2 (P29597 whole entry, the tested form may be a part): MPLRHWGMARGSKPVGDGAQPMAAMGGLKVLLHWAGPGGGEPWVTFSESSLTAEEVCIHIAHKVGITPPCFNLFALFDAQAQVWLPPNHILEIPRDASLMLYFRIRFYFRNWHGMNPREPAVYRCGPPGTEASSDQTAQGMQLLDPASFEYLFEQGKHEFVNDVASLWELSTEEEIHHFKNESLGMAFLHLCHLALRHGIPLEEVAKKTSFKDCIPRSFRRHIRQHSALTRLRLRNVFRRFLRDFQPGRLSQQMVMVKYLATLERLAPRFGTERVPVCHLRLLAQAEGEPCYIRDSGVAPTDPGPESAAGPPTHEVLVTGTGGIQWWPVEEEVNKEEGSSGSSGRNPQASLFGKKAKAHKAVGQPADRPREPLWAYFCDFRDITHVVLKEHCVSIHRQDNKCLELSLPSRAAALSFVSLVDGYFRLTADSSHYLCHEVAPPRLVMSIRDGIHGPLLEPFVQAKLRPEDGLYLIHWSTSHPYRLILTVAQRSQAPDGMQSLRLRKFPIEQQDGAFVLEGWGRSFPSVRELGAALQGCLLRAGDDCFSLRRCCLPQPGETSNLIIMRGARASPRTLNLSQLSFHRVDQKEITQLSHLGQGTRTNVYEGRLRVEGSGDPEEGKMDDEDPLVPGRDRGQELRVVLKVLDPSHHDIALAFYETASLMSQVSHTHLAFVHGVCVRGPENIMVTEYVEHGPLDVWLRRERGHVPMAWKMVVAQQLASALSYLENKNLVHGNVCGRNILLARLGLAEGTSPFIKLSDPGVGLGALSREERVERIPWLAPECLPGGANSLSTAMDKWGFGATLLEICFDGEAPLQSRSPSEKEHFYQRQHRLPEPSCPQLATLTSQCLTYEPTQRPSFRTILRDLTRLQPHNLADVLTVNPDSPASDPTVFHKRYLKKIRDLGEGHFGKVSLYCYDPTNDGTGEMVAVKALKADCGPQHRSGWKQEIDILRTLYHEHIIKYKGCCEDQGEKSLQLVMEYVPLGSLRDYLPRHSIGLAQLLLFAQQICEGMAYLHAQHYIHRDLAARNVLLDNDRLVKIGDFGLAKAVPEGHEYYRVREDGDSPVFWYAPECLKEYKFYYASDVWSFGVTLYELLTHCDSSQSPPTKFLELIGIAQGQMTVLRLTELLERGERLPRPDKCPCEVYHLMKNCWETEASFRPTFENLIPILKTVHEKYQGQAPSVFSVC
Sequence of Serine/threonine-protein kinase 24 (Q9Y6E0 whole entry): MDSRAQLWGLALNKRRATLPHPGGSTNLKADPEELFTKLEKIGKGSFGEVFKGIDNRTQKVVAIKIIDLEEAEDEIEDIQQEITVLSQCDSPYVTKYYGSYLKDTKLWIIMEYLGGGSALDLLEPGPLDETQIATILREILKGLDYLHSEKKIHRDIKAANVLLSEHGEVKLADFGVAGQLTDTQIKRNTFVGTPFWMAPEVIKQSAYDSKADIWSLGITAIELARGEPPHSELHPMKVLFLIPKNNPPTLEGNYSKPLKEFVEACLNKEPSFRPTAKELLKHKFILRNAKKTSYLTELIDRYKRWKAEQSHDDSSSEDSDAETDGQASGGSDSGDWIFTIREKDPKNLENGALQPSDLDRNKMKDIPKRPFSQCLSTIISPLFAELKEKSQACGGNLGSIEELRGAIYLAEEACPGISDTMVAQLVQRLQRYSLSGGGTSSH
Sequence of Proto-oncogene tyrosine-protein kinase receptor Ret (P07949 whole entry, the tested form may be a part): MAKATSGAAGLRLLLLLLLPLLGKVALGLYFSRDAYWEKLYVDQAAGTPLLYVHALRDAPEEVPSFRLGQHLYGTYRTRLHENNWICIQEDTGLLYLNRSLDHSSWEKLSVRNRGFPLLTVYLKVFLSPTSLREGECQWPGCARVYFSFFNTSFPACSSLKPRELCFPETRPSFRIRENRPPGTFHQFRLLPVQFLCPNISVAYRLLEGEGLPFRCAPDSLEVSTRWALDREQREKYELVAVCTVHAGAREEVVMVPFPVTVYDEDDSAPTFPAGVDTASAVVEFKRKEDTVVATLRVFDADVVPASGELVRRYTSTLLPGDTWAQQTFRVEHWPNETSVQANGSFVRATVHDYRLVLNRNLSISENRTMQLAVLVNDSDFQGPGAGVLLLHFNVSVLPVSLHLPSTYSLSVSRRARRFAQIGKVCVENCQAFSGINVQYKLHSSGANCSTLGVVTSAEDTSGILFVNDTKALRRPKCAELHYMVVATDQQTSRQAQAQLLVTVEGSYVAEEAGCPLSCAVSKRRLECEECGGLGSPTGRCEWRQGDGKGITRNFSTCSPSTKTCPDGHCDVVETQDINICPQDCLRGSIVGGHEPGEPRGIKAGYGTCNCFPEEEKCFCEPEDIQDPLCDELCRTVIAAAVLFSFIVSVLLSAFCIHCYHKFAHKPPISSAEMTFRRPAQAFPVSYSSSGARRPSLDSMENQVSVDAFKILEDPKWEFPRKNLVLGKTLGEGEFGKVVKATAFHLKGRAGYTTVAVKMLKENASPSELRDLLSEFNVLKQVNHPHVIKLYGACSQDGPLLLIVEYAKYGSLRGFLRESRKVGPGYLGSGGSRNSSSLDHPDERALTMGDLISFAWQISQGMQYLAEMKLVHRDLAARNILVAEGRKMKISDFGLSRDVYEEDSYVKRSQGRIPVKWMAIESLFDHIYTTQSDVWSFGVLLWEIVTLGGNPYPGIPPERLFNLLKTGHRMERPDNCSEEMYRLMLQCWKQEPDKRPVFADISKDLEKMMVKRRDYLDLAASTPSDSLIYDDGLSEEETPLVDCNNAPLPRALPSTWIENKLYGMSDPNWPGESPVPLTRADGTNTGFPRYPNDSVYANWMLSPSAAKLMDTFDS
Sequence of Calcium/calmodulin-dependent protein kinase type II subunit gamma (Q13555 whole entry, the tested form may be a part): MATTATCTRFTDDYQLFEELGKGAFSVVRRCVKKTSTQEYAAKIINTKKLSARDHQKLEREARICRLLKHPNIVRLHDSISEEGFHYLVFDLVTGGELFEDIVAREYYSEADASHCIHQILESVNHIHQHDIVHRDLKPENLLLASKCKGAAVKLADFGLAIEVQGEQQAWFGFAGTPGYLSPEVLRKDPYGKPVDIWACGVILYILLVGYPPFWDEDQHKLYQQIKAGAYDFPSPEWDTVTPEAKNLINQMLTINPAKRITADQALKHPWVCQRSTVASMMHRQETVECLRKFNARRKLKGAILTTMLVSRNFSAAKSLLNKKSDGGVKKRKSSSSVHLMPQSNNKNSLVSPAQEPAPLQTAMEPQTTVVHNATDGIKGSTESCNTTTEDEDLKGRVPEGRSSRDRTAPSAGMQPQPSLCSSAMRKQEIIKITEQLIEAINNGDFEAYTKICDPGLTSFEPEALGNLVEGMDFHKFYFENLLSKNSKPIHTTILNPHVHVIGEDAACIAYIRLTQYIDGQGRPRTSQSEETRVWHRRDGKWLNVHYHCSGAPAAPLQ
Sequence of Death-associated protein kinase 2 (Q9UIK4 whole entry): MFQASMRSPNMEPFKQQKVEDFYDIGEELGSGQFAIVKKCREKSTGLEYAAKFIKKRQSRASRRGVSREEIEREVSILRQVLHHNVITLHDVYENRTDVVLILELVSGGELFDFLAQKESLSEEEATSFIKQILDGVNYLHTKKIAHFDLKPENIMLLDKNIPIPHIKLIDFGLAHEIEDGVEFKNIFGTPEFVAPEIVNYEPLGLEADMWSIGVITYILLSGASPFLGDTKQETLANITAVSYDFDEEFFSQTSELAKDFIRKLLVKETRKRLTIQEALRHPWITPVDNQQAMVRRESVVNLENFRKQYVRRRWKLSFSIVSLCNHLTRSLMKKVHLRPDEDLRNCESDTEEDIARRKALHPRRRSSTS

| Compound | Kd [1] [nM] | Kd [2] [nM] | Kd [3] [nM] | Kd [4] [nM] | Kd [5] [nM] | Kd [6] [nM] | Kd [7] [nM] | Kd [8] [nM] | Kd [9] [nM] | Kd [10] [nM] | Kd [11] [nM] | Kd [12] [nM] | Kd [13] [nM] | Kd [14] [nM] | Kd [15] [nM] | Kd [16] [nM] | Kd [17] [nM] | Kd [18] [nM] | Kd [19] [nM] | Kd [20] [nM] | other results |
| --- | --- | --- | --- | --- | --- | --- | --- | --- | --- | --- | --- | --- | --- | --- | --- | --- | --- | --- | --- | --- | --- |
| CO[C@@H]1[C@H](NCCOCCOCCOCCNC(=O)CCC2=[N+]3C(=Cc4c(C)cc(C)n4[B-]3(F)F)C=C2)C[C@H]2O[C@]1(C)n1c3ccccc3c3c4c(c5c6ccccc6n2c5c31)C(=O)NC4 | 40 | 8 | 299 | 531 | 34 | 79 | 436 | 496 | 26 | 17 | 38 | 1060 | 93 | 452 | 59 | 766 | 879 | 8 | 322 | 71 | Kd [21]: 329 nM; Kd [22]: 61 nM; Kd [23]: 28 nM; Kd [24]: 40 nM |
| CO[C@@H]1[C@H](N(C)CCOCCOCCOCCNC(=O)CCC2=[N+]3C(=Cc4c(C)cc(C)n4[B-]3(F)F)C=C2)C[C@H]2O[C@]1(C)n1c3ccccc3c3c4c(c5c6ccccc6n2c5c31)C(=O)NC4 | 54 | 49 | 609 | 1050 | 60 | 140 | 767 | 798 | 41 | 24 | 53 | 1460 | 125 | 572 | 73 | 887 | 1010 | 9 | 338 | 72 | Kd [21]: 213 nM; Kd [22]: 37 nM; Kd [23]: 16 nM; Kd [24]: 13 nM |
